Each structure is given as a SMILES string. Calls of active or inactive are those of the source. No cut-off for these calls is given here.

Data set [1] is described as follows: Prodrug conversion in THF/MeOH solution assessed as first order rate constant for protonated/deuterated metabolite (6HD) formation at 0.01 mmol treated with NaBH4 by UV-visible spectroscopic analysis. Format: ADME.
Data set [2] is described as follows: Prodrug conversion in THF/MeOH solution assessed as first order rate constant for deuterated metabolite (6D2) formation at 0.01 mmol treated with NaBD4 by UV-visible spectroscopic analysis. The class given is ADME.
The target in data set [3] is T1, Decaprenylphosphoryl-beta-D-ribose oxidase (Mycobacterium tuberculosis (strain ATCC 25618 / H37Rv)) (UniProt P9WJF1).
T1 sequence (whole entry): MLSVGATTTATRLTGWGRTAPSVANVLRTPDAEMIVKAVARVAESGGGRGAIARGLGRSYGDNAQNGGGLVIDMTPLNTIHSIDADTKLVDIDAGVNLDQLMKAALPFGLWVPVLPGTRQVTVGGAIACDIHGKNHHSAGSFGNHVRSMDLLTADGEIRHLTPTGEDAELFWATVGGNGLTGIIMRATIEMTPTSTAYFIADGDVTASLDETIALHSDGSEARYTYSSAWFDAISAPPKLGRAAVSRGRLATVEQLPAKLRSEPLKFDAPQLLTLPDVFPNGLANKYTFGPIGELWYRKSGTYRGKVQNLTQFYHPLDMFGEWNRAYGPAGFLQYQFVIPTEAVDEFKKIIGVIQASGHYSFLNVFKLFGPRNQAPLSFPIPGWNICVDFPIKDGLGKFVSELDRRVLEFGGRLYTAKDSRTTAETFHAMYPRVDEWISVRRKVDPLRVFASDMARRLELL
Description: Inhibition of DprE1 in Mycobacterium tuberculosis H37Rv assessed as reduction in bacterial growth at 0.02 to 0.03 uM measured in GAS medium.

Data set [4] can be described thus: Drug recovery in THF/MeOH solution measured after 3 days by 1H-NMR analysis. The settings on record: tested as the 2H-labelled form.
A short description of data set [5]: Prodrug conversion in THF/MeOH solution assessed as first order rate constant for protonated metabolite (6H2) formation at 0.01 mmol treated with NaBH4 by UV-visible spectroscopic analysis. Format: ADME.
The target of data set [6] is T1, Decaprenylphosphoryl-beta-D-ribose oxidase (Mycobacterium tuberculosis (strain ATCC 25618 / H37Rv)). The data set can be described thus: Inhibition of DprE1 in Mycobacterium tuberculosis H37Rv assessed as reduction in bacterial growth at <0.004 uM measured in MABA media.

For `[2H]c1c(C(F)(F)F)c([2H])c2c(=O)nc(N3CCC4(CC3)OC[C@H](C)O4)sc2c1[N+](=O)[O-]`, the K came to 2.8 ×10⁻⁵ /s in data set [1] and 1.2 ×10⁻⁵ /s in data set [2].
On to `C[C@H]1COC2(CCN(c3nc(=O)c4cc(C(F)(F)F)cc([N+](=O)[O-])c4s3)CC2)O1` [BTZ-043], for which the inhibition entry in data set [3], in data set [3] (tested as the 2H-labelled form), in data set [6] and in data set [6] (tested as the 2H-labelled form) was “Active” in each case. This compound also showed a Drug recovery in data set [4] of 95%. In data set [5], the K worked out at 5.6 ×10⁻⁵ /s.

These data come from ChEMBL document CHEMBL4364356, “Deuteration of BTZ043 Extends the Lifetime of Meisenheimer Intermediates to the Antituberculosis Nitroso Oxidation State” (ACS Med Chem Lett, 2019).
